From article PMC6675780, “Monitoring activities of receptor tyrosine kinases using a universal adapter in genetically encoded split TEV assays” (Cellular and Molecular Life Sciences: CMLS, 2019)
Where two headings read alike, the source gives them in different places.

Assays:
PC12 cells = experiment: Constitutive Renilla luciferase readout to assess toxic effects; type: cell-based; conditions: split TEV dose-response assays
Procedure: For split TEV recruitment assays in a dose–response format, the following amendments to the general protocol were made. For a dose–response assay, all cells on the plate were transfected with the same receptor-NTEV-tcs-GV and adapter-CTEV fusions, the Fluc reporter plasmid, 1 ng of a plasmid constitutively expressing Renilla luciferase driven by a thymidine kinase promoter, and the EYFPnuc expressing plasmid. Renilla luciferase was used to assess toxic effects when applying compounds. For dose-dependent stimulation testing activation, six wells per condition were stimulated using increasing concentrations of an agonist at a semi-logarithmic scale. For assays testing inhibition, cells were treated with increasing concentrations of an antagonist at a semi-logarithmic scale, followed 1 h later by the addition of an agonist at a constant concentration. […] Dose–response data were analysed using the R-based ‘drc’ package, as described before. Error bars are calculated as standard error of the mean (SEM). For ease of presentation and intuition, we have transformed conventionally used IC50 values into pIC50 values. These are calculated from IC50 values using the formula pIC50 = − log10(IC50), with units of molar for IC50 and therefore log(molar) for pIC50.

MET = MET (Homo sapiens, UniProt P08581); experiment: Split TEV recruitment assay, MET-NTEV-tcs-GV in PC12 cells; conditions: SH2(GRB2)-CTEV adapter, constant HGF stimulus
Procedure: (§1) Split TEV recruitment assays were run in six replicates per condition in 96-well plates. 50,000 PC12 cells per well were seeded onto poly-L-lysine (PLL)-coated plates. The next day, cells were transfected with assay plasmids using Lipofectamine 2000. For transfection-based assays, no antibiotics were added to the medium. Per 96-well, a receptor-NTEV-tcs-GV fusion plasmid (10 ng), an adapter-CTEV fusion plasmid for either SHC1 (10 ng), SH2(SHC1) (10 ng), SH2(GRB2) (10 ng), SH2(mix) (10 ng), PIK3R1(50 ng), SH2(PIK3R1) (50 ng), or GRB2 (2.5 ng), and an Fluc reporter plasmid (10 ng, Fluc driven by 10x clustered upstream activating sequences coupled to a minimal CMV promoter, 10 × UAS-minCMVp) were used. […] 16 h later (day 4), the medium was removed, and cells were lysed using Passive Lysis Buffer (Promega) and luciferase activity was analysed using a dual luciferase assay (Promega) in a Mithras LB 940 Multimode Microplate Reader (Berthold Technologies). […] Error bars are calculated as standard error of the mean (SEM).
(§2) For split TEV recruitment assays in a dose–response format, the following amendments to the general protocol were made. […] Error bars are calculated as standard error of the mean (SEM).

IGF1R = IGF1R (Homo sapiens, UniProt P08069); experiment: Split TEV recruitment assay, IGF1R-NTEV-tcs-GV in PC12 cells; conditions: SH2(GRB2)-CTEV adapter, constant IGF1 stimulus
Procedure: as §1, §2

EGFR [1] = conditions: Western blotting, cellular lysates, AID 770081; cited from earlier work
EGFR [2] = conditions: Biochemical, AID 1204628; cited from earlier work
ERBB2 = conditions: Biochemical, AID 1204629; cited from earlier work
ERBB3 = conditions: Biochemical, AID 1204629; cited from earlier work
ERBB4 [3] = conditions: Biochemical, AID 1204629; cited from earlier work
ERBB4 [4] = test system: ERBB4; design: method as in PMID 28743784; conditions: split TEV dimerisation assay; cited from earlier work
EGFR [5] = target: EGFR (Homo sapiens, UniProt P00533); experiment: Split TEV recruitment assay, EGFR-NTEV-tcs-GV in PC12 cells; conditions: SH2(GRB2)-CTEV adapter, constant EGF
Procedure: as §1, §2

ERBB4 [6] = target: ERBB4 (Homo sapiens, UniProt Q15303); experiment: Split TEV recruitment assay, ERBB4-NTEV-tcs-GV in PC12 cells; conditions: for Antagonistic effect on ERBB4 activity: SH2(GRB2)-CTEV adapter, PC12 cells, constant EGFld
Procedure: Split TEV recruitment assays were run in six replicates per condition in 96-well plates. 50,000 PC12 cells per well were seeded onto poly-L-lysine (PLL)-coated plates. The next day, cells were transfected with assay plasmids using Lipofectamine 2000. For transfection-based assays, no antibiotics were added to the medium. Per 96-well, a receptor-NTEV-tcs-GV fusion plasmid (10 ng), an adapter-CTEV fusion plasmid for either SHC1 (10 ng), SH2(SHC1) (10 ng), SH2(GRB2) (10 ng), SH2(mix) (10 ng), PIK3R1(50 ng), SH2(PIK3R1) (50 ng), or GRB2 (2.5 ng), and an Fluc reporter plasmid (10 ng, Fluc driven by 10x clustered upstream activating sequences coupled to a minimal CMV promoter, 10 × UAS-minCMVp) were used. Additionally, 1 ng of a plasmid constitutively expressing an EYFP that is fused to nuclear localisation sequence (EYFPnuc) driven by a CMV promoter was transfected per 96-well to assess transfection efficiencies (EYFPnuc). In detail, assay plasmids were diluted in 30 µl Opti-MEM (Thermo Fisher Scientific), vortexed, and mixed with 0.2 µl Lipofectamine 2000 per well. The DNA/Lipofectamine/Opti-MEM mix was incubated for 20 min. The medium was removed from the wells and the DNA/Lipofectamine/Opti-MEM mix was added onto the cells. After 2 h of incubation, the maintenance medium without antibiotics was added to the Opti-MEM mix. On day 2, the maintenance medium was replaced by starvation medium. […] 16 h later (day 4), the medium was removed, and cells were lysed using Passive Lysis Buffer (Promega) and luciferase activity was analysed using a dual luciferase assay (Promega) in a Mithras LB 940 Multimode Microplate Reader (Berthold Technologies). […] Error bars are calculated as standard error of the mean (SEM).
as §2

ERBB2/ERBB3 = ERBB2/ERBB3 (Homo sapiens, UniProt P04626+P21860); experiment: Split TEV recruitment assay, ERBB3-NTEV-tcs-GV with co-transfected ERBB2 in PC12 cells; conditions: SH2(GRB2)-CTEV adapter, constant EGFld
Procedure: as §1, §2

Chain of ERBB4 (Homo sapiens, UniProt Q15303) (Q15303 26-1308): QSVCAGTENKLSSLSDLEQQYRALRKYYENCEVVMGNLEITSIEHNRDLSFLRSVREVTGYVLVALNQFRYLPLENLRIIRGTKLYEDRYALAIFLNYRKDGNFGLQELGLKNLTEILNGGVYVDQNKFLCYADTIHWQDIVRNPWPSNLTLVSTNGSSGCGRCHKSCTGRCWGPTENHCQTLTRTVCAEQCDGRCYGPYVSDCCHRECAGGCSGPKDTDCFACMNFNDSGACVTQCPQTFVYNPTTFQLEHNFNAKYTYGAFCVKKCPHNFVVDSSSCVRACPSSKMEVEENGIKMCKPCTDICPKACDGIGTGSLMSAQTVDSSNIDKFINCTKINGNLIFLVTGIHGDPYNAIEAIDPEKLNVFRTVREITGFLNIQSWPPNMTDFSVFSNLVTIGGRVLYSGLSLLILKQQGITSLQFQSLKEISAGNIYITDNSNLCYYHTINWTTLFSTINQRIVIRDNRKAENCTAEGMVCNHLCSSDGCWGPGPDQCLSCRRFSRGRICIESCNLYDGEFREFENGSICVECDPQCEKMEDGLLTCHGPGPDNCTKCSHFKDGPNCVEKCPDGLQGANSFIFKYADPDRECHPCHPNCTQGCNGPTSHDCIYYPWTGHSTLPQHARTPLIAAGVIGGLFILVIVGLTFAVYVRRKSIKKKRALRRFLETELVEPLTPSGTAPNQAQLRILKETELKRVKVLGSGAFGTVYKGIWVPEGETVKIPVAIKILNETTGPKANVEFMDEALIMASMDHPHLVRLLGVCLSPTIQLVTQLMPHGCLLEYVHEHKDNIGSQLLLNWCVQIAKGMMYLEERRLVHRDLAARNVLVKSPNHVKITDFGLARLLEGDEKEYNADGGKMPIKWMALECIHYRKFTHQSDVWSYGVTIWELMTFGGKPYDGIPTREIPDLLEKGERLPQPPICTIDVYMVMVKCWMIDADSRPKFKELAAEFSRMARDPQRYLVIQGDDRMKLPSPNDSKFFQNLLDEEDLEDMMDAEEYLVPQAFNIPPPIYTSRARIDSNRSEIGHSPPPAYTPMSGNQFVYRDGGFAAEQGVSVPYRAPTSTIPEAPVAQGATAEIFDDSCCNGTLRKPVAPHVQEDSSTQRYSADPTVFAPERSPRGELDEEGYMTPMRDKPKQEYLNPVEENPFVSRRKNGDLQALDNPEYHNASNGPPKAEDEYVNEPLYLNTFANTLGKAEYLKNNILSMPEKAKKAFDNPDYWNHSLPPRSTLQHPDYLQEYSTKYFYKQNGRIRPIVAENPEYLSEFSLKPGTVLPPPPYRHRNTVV
Chain of IGF1R (P08069 31-1367): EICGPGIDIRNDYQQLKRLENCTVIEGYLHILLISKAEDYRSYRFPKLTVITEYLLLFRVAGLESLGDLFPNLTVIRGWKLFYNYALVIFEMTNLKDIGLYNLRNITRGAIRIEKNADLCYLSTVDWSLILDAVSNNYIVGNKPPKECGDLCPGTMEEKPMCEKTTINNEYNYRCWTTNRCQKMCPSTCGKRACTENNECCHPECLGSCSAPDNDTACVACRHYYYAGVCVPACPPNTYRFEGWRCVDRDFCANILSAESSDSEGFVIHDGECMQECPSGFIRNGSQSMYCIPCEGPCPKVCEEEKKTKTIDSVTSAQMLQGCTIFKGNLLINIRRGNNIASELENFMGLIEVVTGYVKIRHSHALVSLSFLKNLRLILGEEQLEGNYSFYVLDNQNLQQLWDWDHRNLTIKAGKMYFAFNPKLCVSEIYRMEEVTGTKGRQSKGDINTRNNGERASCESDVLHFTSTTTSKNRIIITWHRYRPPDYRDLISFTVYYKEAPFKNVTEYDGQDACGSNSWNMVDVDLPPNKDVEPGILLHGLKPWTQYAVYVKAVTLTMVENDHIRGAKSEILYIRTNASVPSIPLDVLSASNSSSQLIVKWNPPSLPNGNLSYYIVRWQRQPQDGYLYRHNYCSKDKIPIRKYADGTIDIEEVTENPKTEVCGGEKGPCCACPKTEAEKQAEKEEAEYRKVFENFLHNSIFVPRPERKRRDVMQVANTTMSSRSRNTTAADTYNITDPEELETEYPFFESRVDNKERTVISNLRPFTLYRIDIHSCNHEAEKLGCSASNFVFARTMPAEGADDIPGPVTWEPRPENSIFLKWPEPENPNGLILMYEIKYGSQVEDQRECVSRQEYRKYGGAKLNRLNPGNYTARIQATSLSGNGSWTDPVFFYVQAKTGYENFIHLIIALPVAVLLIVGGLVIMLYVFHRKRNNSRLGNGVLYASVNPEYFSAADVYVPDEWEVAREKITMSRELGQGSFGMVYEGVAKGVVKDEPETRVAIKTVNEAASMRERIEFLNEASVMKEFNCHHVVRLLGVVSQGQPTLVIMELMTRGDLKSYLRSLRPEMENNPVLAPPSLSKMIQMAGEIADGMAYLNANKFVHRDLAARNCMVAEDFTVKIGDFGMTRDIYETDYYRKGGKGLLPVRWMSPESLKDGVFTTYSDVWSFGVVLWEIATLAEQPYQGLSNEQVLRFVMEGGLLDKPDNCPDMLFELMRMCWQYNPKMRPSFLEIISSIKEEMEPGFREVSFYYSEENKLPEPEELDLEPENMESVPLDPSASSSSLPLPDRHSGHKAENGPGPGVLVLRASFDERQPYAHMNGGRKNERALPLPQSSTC
Chain of EGFR (Homo sapiens, UniProt P00533) (P00533 25-1210): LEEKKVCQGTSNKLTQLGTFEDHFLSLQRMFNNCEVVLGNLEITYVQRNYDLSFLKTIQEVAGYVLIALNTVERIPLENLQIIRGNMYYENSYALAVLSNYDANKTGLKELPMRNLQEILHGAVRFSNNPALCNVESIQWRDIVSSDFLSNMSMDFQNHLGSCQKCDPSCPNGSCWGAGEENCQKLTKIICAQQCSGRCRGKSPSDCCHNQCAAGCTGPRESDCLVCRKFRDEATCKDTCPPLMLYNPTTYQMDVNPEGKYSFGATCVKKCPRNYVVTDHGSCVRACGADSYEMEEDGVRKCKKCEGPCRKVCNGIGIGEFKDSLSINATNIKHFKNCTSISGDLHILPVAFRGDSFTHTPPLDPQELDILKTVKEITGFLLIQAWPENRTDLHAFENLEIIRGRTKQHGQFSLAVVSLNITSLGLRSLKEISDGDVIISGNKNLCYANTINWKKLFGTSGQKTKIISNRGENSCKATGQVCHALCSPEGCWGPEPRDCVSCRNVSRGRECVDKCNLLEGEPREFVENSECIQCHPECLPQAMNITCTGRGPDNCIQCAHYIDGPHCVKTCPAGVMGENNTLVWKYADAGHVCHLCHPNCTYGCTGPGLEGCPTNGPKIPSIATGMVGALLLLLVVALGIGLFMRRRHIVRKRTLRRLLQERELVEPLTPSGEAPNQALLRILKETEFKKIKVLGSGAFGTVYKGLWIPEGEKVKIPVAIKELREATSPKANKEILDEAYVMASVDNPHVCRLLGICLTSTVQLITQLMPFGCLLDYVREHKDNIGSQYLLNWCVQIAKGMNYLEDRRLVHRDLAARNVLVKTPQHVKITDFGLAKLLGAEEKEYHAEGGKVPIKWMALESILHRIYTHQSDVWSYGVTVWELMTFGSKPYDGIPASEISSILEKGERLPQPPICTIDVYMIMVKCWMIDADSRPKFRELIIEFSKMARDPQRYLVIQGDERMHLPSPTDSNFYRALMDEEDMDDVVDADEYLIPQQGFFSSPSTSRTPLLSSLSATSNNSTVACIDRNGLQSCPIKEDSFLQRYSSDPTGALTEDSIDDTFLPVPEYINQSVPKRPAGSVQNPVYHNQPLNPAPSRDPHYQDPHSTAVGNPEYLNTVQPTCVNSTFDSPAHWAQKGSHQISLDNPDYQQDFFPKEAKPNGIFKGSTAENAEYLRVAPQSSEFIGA

SMILES | Inhibition of IGF1R activity (IGF1R) | Antagonistic effect on EGFR activity (EGFR [5]) | Antagonistic effect on ERBB4 activity (ERBB4 [6]) | Antagonistic effect on ERBB2/ERBB3 activity (ERBB2/ERBB3) | Concentration at which toxic effects occur (constitutive Renilla luciferase readout) (PC12 cells) [µM] | further results
CS(=O)(=O)CCNCc1ccc(-c2ccc3ncnc(Nc4ccc(OCc5cccc(F)c5)c(Cl)c4)c3c2)o1 [Lapatinib, lapatinib] | did not inhibit | – | – | – | 30 | Inhibition of MET activity (MET): did not inhibit
COc1cc2c(Oc3ccc(NC(=O)C4(C(=O)Nc5ccc(F)cc5)CC4)cc3F)ccnc2cc1OCCCN1CCOCC1 [foretinib] | – | – | – | – | 30 | –
C=CC(=O)Nc1cccc(Oc2nc(Nc3ccc(N4CCN(C)CC4)cc3OC)ncc2Cl)c1 [WZ4002] | – | – | – | – | – | pIC50 (EGFR [1]): 5.93; pIC50 (EGFR [2]): 7.79; IC50 (nM)/KD (ERBB2): 0.42 nM; pIC50 (ERBB2): 9.37; IC50 (nM)/KD (ERBB3): 0.42 nM; pIC50 (ERBB3): 9.37; pIC50 (ERBB4 [3]): 9.37
C[C@]1(O)C[C@@H](c2nc(-c3ccc4ccc(-c5ccccc5)nc4c3)c3c(N)nccn32)C1 [linsitinib] | efficiently inhibited | – | – | – | 30 | –

More lines, main results first:

Inhibition of IGF1R activity (IGF1R) | Antagonistic effect on EGFR activity (EGFR [5]) | Antagonistic effect on ERBB4 activity (ERBB4 [6]) | Antagonistic effect on ERBB2/ERBB3 activity (ERBB2/ERBB3) | SMILES | Concentration at which toxic effects occur (constitutive Renilla luciferase readout) (PC12 cells) [µM] | further results
– | inhibited | inhibited | inhibited | CC(=O)S[C@@H]1CC2=CC(=O)CC[C@]2(C)[C@H]2CC[C@@]3(C)[C@@H](CC[C@@]34CCC(=O)O4)[C@H]12 [Spironolactone, spironolactone] | – | Selectivity among ERBB receptors (ERBB4 [4]): selectivity for ERBB4 over EGFR; Selectivity among ERBB receptors (ERBB4 [6]; split TEV recruitment assays, SH2(GRB2) adapter): some selectivity for ERBB4 over EGFR
– | did not exhibit any antagonistic effects | did not exhibit any antagonistic effects | did not exhibit any antagonistic effects | C[C@]12CCC(=O)C=C1C=C[C@@H]1[C@@H]2CC[C@@]2(C)[C@H]1CC[C@@]21CCC(=O)O1 [canrenone] | – | –
